Reference: US10792301B2, “Therapeutic polysaccharide midi-GAGR and related materials and methods” (priority 2015, dated 2020)

Tests used:
FGFR1 = target: T1, FGFR1 (Mus musculus, UniProt P16092); assay: Affinity chromatography with midi-GAGR- or dextran-conjugated sepharose beads, FGFR1 immunoblot; assay type: binding; conditions: brain extract in 0.5% Igepal PMEE buffer
T1 construct: Whole mouse brains were homogenized for cytosol extraction in PMEE buffer containing 1% Igepal CA-630; from tissue; host or cells: mouse cerebral cortex / whole brain detergent extract
T1 sequence (P16092 22-822): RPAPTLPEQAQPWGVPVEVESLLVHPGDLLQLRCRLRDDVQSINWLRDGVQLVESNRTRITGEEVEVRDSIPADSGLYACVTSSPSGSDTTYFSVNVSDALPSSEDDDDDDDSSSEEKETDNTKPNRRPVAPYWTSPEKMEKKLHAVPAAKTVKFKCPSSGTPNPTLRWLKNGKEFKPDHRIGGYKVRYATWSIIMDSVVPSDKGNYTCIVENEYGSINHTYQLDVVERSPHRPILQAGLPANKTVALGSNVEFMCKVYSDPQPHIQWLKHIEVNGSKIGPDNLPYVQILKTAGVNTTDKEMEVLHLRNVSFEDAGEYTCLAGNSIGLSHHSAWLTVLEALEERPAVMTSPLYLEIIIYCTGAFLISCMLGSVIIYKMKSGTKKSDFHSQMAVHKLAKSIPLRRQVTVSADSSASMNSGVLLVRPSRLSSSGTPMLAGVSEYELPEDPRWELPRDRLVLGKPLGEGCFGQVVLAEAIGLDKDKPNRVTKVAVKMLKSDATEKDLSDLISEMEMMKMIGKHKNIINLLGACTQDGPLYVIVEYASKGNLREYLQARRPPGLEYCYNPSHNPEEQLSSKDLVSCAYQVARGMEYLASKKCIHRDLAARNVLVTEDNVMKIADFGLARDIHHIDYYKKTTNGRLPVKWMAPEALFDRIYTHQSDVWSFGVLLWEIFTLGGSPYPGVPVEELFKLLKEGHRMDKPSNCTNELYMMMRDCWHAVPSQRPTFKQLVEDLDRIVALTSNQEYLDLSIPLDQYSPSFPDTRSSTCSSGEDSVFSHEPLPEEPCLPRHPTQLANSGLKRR
Procedure: To examine whether midi-GAGR interacts with synaptosomal FGFR1 or not, an affinity chromatography using midi-GAGR-conjugated sepharose beads was performed. Either midi-GAGR or dextran were conjugated to epoxy-activated sepharose 6B that is a pre-activated medium that can be conjugated to the hydroxyl groups of carbohydrates. Briefly, 200 μL of 7.4 mM midi-GAGR or 5 kD dextran in H2O was mixed with 200 μL of epoxy-activated sepharose beads in a microtube and incubated on a rotator (16 h, 37° C.). The mixture was spun down at 1,000×g (10 min) to separate bead-bound polysaccharides from unbound. Unoccupied active sites on beads were blocked by incubation (4 h, 45° C.) in 1 M ethanolamine (pH 8). Then, beads were washed with three cycles of alternating pH solutions—0.1 M acetate buffer (pH 4) and 0.1 M Tris-HCl buffer (pH 8), both containing 0.5 M NaCl. The conjugation of polysaccharides to beads was confirmed by phenol-sulfuric acid colorimetry. Cerebral cortices were dissected from four female mice (BALB/C, 8 wks old) and homogenized with a hand grinder in 1 mL of PMEE homogenization buffer plus 1% Igepal CA-630 and protease inhibitors (PIs). The homogenate was centrifuged at 1,000×g (10 min) to remove nuclei and undisrupted cells. The supernatant was subjected to 5-6 strokes through 27 G needle. Post-nuclear supernatant was centrifuged at 1,000×g (15 min). […]

[1] = tested on: Mouse cortical neurons (E17, DIV5); assay: LIVE/DEAD assay, pre-treated mouse cortical neurons with 4HNE, H2O2 or Aβ42; assay type: cell-based; conditions: pre-treatment 24 h (1 μM midi-GAGR, dextran, alginate; 0.1 μM LA-GAGR; 0.01 μM HA-GAGR)
Source text: The protective effect of polysaccharides on primary cortical neurons from 4HNE, H2O2, and Aβ42 peptide (Sigma) was examined using LIVE/DEAD® Viability/Cytotoxicity Assay Kit (Life Technologies). Female pregnant mice (BALB/C, E17, Charles River Laboratories International, Inc.) or female pregnant SD rats (E17, bred in house) were anesthetized and dissected to obtain 8-9 embryos per animal. Cortical neurons were isolated from embryonic brains and differentiated on poly-L-lysine-coated coverslips in B27/neurobasal medium. For drug treatment before free radical treatment, mouse cortical neurons (5 days in vitro [DIV5.]) were treated with vehicle (H2O), 1 μM of 5 kD dextran (Sigma), alginate (Sigma), midi-GAGR, 0.01 μM of high acyl gellan gum (HA-GAGR, CPKelco Co.), or 0.1 μM of LA-GAGR for 24 h and then treated with 10 μM 4HNE or 50 μM H2O2 for 24 h, or 2 μM A[…]42 peptide for 48 h prior to viability/cytotoxicity assay. For drug co-treatment with free radicals, rat cortical neurons (DIV5) were treated with 1 μM of dextran, alginate, or midi-GAGR, 0.01 μM of HA-GAGR, or 0.1 μM of LA-GAGR along with either 10 μM 4HNE (24 h) or 2 μM Aβ42 peptide (48 h). To examine the extent to which midi-GAGR-mediated neuroprotection depends on FGFR1, rat cortical neurons (E17, DIV5) were pre-treated with 4 μM SU5402 (Sigma) for 6 h and treated with 10 μM 4HNE and either vehicle or 1 μM midi-GAGR for 24 h prior to cell viability/cytotoxicity assay. As controls, neurons were treated with SU5402, midi-GAGR, 4HNE, 4HNE plus midi-GAGR, or SU5402 plus midi-GAGR.
For cell viability/cytotoxicity measurement, neurons on glass coverslips were incubated in 1×PBS containing 2 μM calcein AM (live cells: green) and 4 μM ethidium homodimer-1 (dead cells: red) for 10 min at 37° C. Immediately thereafter, neurons were imaged by 10×objective using a fluorescence Olympus IX71 microscope (Olympus America Inc., Center Valley, Pa.) and, for the acquisition of high-quality images, using TCS SP5 multi-photon laser scanning confocal microscope.
Midi-GAGR attenuated neurite atrophy caused by free reactive radicals. It is now shown herein that midi-GAGR protect neurons from the death caused by free radical insults. The extent to which midi-GAGR protects the primary culture of rodent cortical neurons from 4HNE and H2O2 was determined. In addition to the radicals, amyloid β peptide (Aβ42) was also tested. Aβ42 peptide is a major causative factor that causes oxidative stress and neuron death. Mouse cortical neurons (E17, DIV5) were treated with 10 μM 4HNE (24 h), 50 μM H2O2 (24 h), or 2 μM Aβ42 peptide (48 h) after the treatment of the neurons with vehicle (H2O), midi-GAGR (1 μM), dextran (1 μM), alginate (1 μM), LA-GAGR (0.1 μM), or HA-GAGR (0.01 μM) for 24 h. The concentrations of 4HNE, H2O2, and Aβ42 peptide were chosen according to their patho-physiological concentrations. The concentrations of LA-GAGR and HA-GAGR were chosen because, within the same volume, the total numbers of sugar units in the polysaccharides at the concentrations are close to that of 1 μM midi-GAGR. The viability of neurons was assessed using LIVE/DEAD® Viability/Cytotoxicity Assay Kit in which membrane-permeant calcein AM is cleaved by esterase in live cells, thus yielding green fluorescence, and membrane-impermeant ethidium homodimer-1 stains the nucleic acids of plasma membrane-compromised cells with red fluorescence. The numbers of green (live) and red (dead) neurons in each condition were counted using Metamorph. Although the intensities of green fluorescent signals in neurons treated with either free radicals or Aβ42 peptide were weak, the neurons were included in the counting. About 8-9% of vehicle-treated neurons died during the process of live/dead cell assay (FIGS. 23A-23F, FIGS. 24A-24C).

- FGFR1 eluted from polysaccharide-conjugated beads (FGFR1): not from dextran beads
Substance: dextran
- neuron death after Aβ42 peptide ([1]; 2 μM Aβ42 48 h, vehicle about 30%): did not decrease
- neuron death after H2O2 ([1]; 50 μM H2O2 24 h, vehicle ~25%): did not reduce
